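The compound was tested at five concentrations on cells cultured in 96-well plates, with a 48-hour exposure period. GI50 is the concentration that inhibits growth by half. The concentration for full growth arrest is given as TGI.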
Assays:
Assay in all cases: NCI-60 cell line screen, 48 h
TK-10 renal = tested on: TK-10 renal
MALME-3M melanoma = tested on: MALME-3M melanoma
SR leukemia = tested on: SR leukemia
OVCAR-4 ovarian = tested on: OVCAR-4 ovarian
OVCAR-3 ovarian = tested on: OVCAR-3 ovarian
HCT-15 colon = tested on: HCT-15 colon
NCI/ADR-RES ovarian = tested on: NCI/ADR-RES ovarian
NCI-H23 lung = tested on: NCI-H23 lung
BT-549 breast = tested on: BT-549 breast
NCI-H460 lung = tested on: NCI-H460 lung
LOX IMVI melanoma = tested on: LOX IMVI melanoma
KM12 colon = tested on: KM12 colon
PC-3 prostate = tested on: PC-3 prostate
HOP-92 NSCLC = tested on: HOP-92 NSCLC
ACHN renal = tested on: ACHN renal
RXF 393 renal = tested on: RXF 393 renal
MDA-MB-231 breast = tested on: MDA-MB-231 breast
K-562 leukemia = tested on: K-562 leukemia
RPMI-8226 leukemia = tested on: RPMI-8226 leukemia
HS 578T breast = tested on: HS 578T breast
OVCAR-5 ovarian = tested on: OVCAR-5 ovarian
UACC-257 melanoma = tested on: UACC-257 melanoma
HL-60(TB) leukemia = tested on: HL-60(TB) leukemia
SK-MEL-2 melanoma = tested on: SK-MEL-2 melanoma
SK-MEL-5 melanoma = tested on: SK-MEL-5 melanoma
OVCAR-8 ovarian = tested on: OVCAR-8 ovarian
NCI-H522 lung = tested on: NCI-H522 lung
COLO 205 colon = tested on: COLO 205 colon
DU-145 prostate = tested on: DU-145 prostate
SK-MEL-28 melanoma = tested on: SK-MEL-28 melanoma
SF-539 CNS = tested on: SF-539 CNS
U251 CNS = tested on: U251 CNS
SW-620 colon = tested on: SW-620 colon
NCI-H226 lung = tested on: NCI-H226 lung
CCRF-CEM leukemia = tested on: CCRF-CEM leukemia
MDA-MB-435 = tested on: MDA-MB-435
T-47D breast = tested on: T-47D breast
MCF7 breast = tested on: MCF7 breast
786-0 renal = tested on: 786-0 renal
A498 renal = tested on: A498 renal
HCT-116 colon = tested on: HCT-116 colon
SK-OV-3 ovarian = tested on: SK-OV-3 ovarian
SNB-19 CNS = tested on: SNB-19 CNS
UO-31 renal = tested on: UO-31 renal
HCC-2998 colon = tested on: HCC-2998 colon
HOP-62 NSCLC = tested on: HOP-62 NSCLC
M14 melanoma = tested on: M14 melanoma
MOLT-4 leukemia = tested on: MOLT-4 leukemia
EKVX NSCLC = tested on: EKVX NSCLC
IGROV1 ovarian = tested on: IGROV1 ovarian
SN12C renal = tested on: SN12C renal
UACC-62 melanoma = tested on: UACC-62 melanoma
A549 NSCLC = tested on: A549 NSCLC
CAKI-1 renal = tested on: CAKI-1 renal
SF-268 CNS = tested on: SF-268 CNS
SNB-75 CNS = tested on: SNB-75 CNS
HT29 colon = tested on: HT29 colon
SF-295 CNS = tested on: SF-295 CNS

SMILES: CC(=O)OCC1OC(n2c(-c3cccs3)c3c(c(C#N)c2=S)-c2ccccc2CC3)C(OC(C)=O)C(OC(C)=O)C1OC(C)=O (centres undefined)
- TGI (TK-10 renal): > 30.2 µM
- TGI (MALME-3M melanoma): > 51.8 µM
- TGI (SR leukemia): > 29.8 µM
- TGI (OVCAR-4 ovarian): > 95.7 µM
- TGI (OVCAR-3 ovarian): 43.1 µM
- TGI (HCT-15 colon): > 56.8 µM
- TGI (NCI/ADR-RES ovarian): > 70.8 µM
- TGI (NCI-H23 lung): > 56.6 µM
- TGI (BT-549 breast): > 55.6 µM
- TGI (NCI-H460 lung): > 45.8 µM
- TGI (LOX IMVI melanoma): 22.5 µM
- TGI (KM12 colon): > 50.2 µM
- TGI (PC-3 prostate): > 65.3 µM
- TGI (HOP-92 NSCLC): 29.9 µM
- TGI (ACHN renal): > 64 µM
- TGI (RXF 393 renal): 29.3 µM
- TGI (MDA-MB-231 breast): 87.9 µM
- TGI (K-562 leukemia): > 100 µM
- TGI (RPMI-8226 leukemia): 17 µM
- TGI (HS 578T breast): 70.3 µM
- TGI (OVCAR-5 ovarian): > 100 µM
- TGI (UACC-257 melanoma): > 55.4 µM
- TGI (HL-60(TB) leukemia): > 28.1 µM
- TGI (SK-MEL-2 melanoma): 31.5 µM
- TGI (SK-MEL-5 melanoma): 23 µM
- TGI (OVCAR-8 ovarian): > 46.6 µM
- TGI (NCI-H522 lung): 34 µM
- TGI (COLO 205 colon): 32.9 µM
- TGI (DU-145 prostate): > 100 µM
- TGI (SK-MEL-28 melanoma): > 59.2 µM
- TGI (SF-539 CNS): > 49.3 µM
- TGI (U251 CNS): > 53.8 µM
- TGI (SW-620 colon): > 63.4 µM
- TGI (NCI-H226 lung): > 56.7 µM
- TGI (CCRF-CEM leukemia): > 83.6 µM
- TGI (MDA-MB-435): 9.09 µM
- TGI (T-47D breast): 42.8 µM
- TGI (MCF7 breast): 49.2 µM
- TGI (786-0 renal): 58.5 µM
- TGI (A498 renal): 40.9 µM
- TGI (HCT-116 colon): > 50.4 µM
- TGI (SK-OV-3 ovarian): > 100 µM
- TGI (SNB-19 CNS): > 100 µM
- TGI (UO-31 renal): 20.6 µM
- TGI (HCC-2998 colon): 33.5 µM
- TGI (HOP-62 NSCLC): > 65.4 µM
- TGI (M14 melanoma): > 50.8 µM
- TGI (MOLT-4 leukemia): > 37.7 µM
- TGI (EKVX NSCLC): 70.9 µM
- TGI (IGROV1 ovarian): > 75.1 µM
- TGI (SN12C renal): > 100 µM
- TGI (UACC-62 melanoma): 43.1 µM
- TGI (A549 NSCLC): > 87.1 µM
- TGI (CAKI-1 renal): 64.7 µM
- TGI (SF-268 CNS): > 64.4 µM
- TGI (SNB-75 CNS): 26.7 µM
- TGI (HT29 colon): 27.2 µM
- TGI (SF-295 CNS): > 55.8 µM

SMILES: O[N+]1=CC=CCC1=S.On1ccccc1=S.[Zn]
- GI50 (TK-10 renal): 1.09 µM
- TGI (TK-10 renal): 2.47 µM
- GI50 (MALME-3M melanoma): 0.819 µM
- TGI (MALME-3M melanoma): 2.71 µM
- GI50 (SR leukemia): 0.351 µM
- TGI (SR leukemia): > 23 µM
- GI50 (OVCAR-4 ovarian): 0.53 µM
- TGI (OVCAR-4 ovarian): 1.63 µM
- GI50 (OVCAR-3 ovarian): 0.579 µM
- TGI (OVCAR-3 ovarian): 1.37 µM
- GI50 (HCT-15 colon): 1.03 µM
- TGI (HCT-15 colon): 3.02 µM
- GI50 (NCI/ADR-RES ovarian): 0.699 µM
- TGI (NCI/ADR-RES ovarian): 2.39 µM
- GI50 (NCI-H23 lung): 0.919 µM
- TGI (NCI-H23 lung): 2.81 µM
- GI50 (BT-549 breast): 1.52 µM
- TGI (BT-549 breast): 3.15 µM
- GI50 (NCI-H460 lung): 0.935 µM
- TGI (NCI-H460 lung): 2.87 µM
- GI50 (LOX IMVI melanoma): 0.429 µM
- TGI (LOX IMVI melanoma): 0.912 µM
- GI50 (KM12 colon): 1.28 µM
- TGI (KM12 colon): 2.6 µM
- GI50 (PC-3 prostate): 0.834 µM
- TGI (PC-3 prostate): 3.13 µM
- GI50 (HOP-92 NSCLC): 1.47 µM
- TGI (HOP-92 NSCLC): 3.24 µM
- GI50 (ACHN renal): 0.967 µM
- TGI (ACHN renal): 2.31 µM
- GI50 (RXF 393 renal): 0.587 µM
- TGI (RXF 393 renal): 1.36 µM
- GI50 (MDA-MB-231 breast): 0.759 µM
- TGI (MDA-MB-231 breast): 2.22 µM
- GI50 (K-562 leukemia): 0.661 µM
- TGI (K-562 leukemia): 6.98 µM
- GI50 (RPMI-8226 leukemia): 1.39 µM
- TGI (RPMI-8226 leukemia): 4.05 µM
- GI50 (HS 578T breast): 2.15 µM
- TGI (HS 578T breast): > 30.7 µM
- GI50 (OVCAR-5 ovarian): 1.45 µM
- TGI (OVCAR-5 ovarian): 3.04 µM
- GI50 (UACC-257 melanoma): 0.529 µM
- TGI (UACC-257 melanoma): 1.29 µM
- GI50 (HL-60(TB) leukemia): 2.58 µM
- TGI (HL-60(TB) leukemia): 6.5 µM
- GI50 (SK-MEL-2 melanoma): 1.6 µM
- TGI (SK-MEL-2 melanoma): 3.92 µM
- GI50 (SK-MEL-5 melanoma): 1.1 µM
- TGI (SK-MEL-5 melanoma): 2.47 µM
- GI50 (OVCAR-8 ovarian): 0.399 µM
- TGI (OVCAR-8 ovarian): 1.83 µM
- GI50 (NCI-H522 lung): 0.373 µM
- TGI (NCI-H522 lung): 0.985 µM
- GI50 (COLO 205 colon): 0.375 µM
- TGI (COLO 205 colon): 0.951 µM
- GI50 (DU-145 prostate): 0.732 µM
- TGI (DU-145 prostate): 1.86 µM
- GI50 (SK-MEL-28 melanoma): 0.53 µM
- TGI (SK-MEL-28 melanoma): 1.21 µM
- GI50 (SF-539 CNS): 0.977 µM
- TGI (SF-539 CNS): 2.56 µM
- GI50 (U251 CNS): 0.602 µM
- TGI (U251 CNS): 1.52 µM
- GI50 (SW-620 colon): 0.899 µM
- TGI (SW-620 colon): 2.64 µM
- GI50 (NCI-H226 lung): 1.02 µM
- TGI (NCI-H226 lung): 3.04 µM
- GI50 (CCRF-CEM leukemia): 0.437 µM
- TGI (CCRF-CEM leukemia): 2.75 µM
- GI50 (MDA-MB-435): 0.753 µM
- TGI (MDA-MB-435): 2.27 µM
- GI50 (T-47D breast): 1.43 µM
- TGI (T-47D breast): 3.13 µM
- GI50 (MCF7 breast): 0.532 µM
- TGI (MCF7 breast): 2.1 µM
- GI50 (786-0 renal): 0.931 µM
- TGI (786-0 renal): 2.29 µM
- GI50 (A498 renal): 1.51 µM
- TGI (A498 renal): 3.06 µM
- GI50 (HCT-116 colon): 0.274 µM
- TGI (HCT-116 colon): 0.69 µM
- GI50 (SK-OV-3 ovarian): 1.51 µM
- TGI (SK-OV-3 ovarian): 2.87 µM
- GI50 (SNB-19 CNS): 1.24 µM
- TGI (SNB-19 CNS): 2.8 µM
- GI50 (UO-31 renal): 0.664 µM
- TGI (UO-31 renal): 1.97 µM
- GI50 (HCC-2998 colon): 0.896 µM
- TGI (HCC-2998 colon): 2.37 µM
- GI50 (HOP-62 NSCLC): 1.21 µM
- TGI (HOP-62 NSCLC): 2.72 µM
- GI50 (M14 melanoma): 0.46 µM
- TGI (M14 melanoma): 1.31 µM
- GI50 (MOLT-4 leukemia): 0.614 µM
- TGI (MOLT-4 leukemia): 6.76 µM
- GI50 (EKVX NSCLC): 1.36 µM
- TGI (EKVX NSCLC): 3 µM
- GI50 (IGROV1 ovarian): 0.862 µM
- TGI (IGROV1 ovarian): 2.72 µM
- GI50 (SN12C renal): 1 µM
- TGI (SN12C renal): 2.53 µM
- GI50 (UACC-62 melanoma): 0.755 µM
- TGI (UACC-62 melanoma): 2.23 µM
- GI50 (A549 NSCLC): 0.811 µM
- TGI (A549 NSCLC): 2.33 µM
- GI50 (CAKI-1 renal): 1.53 µM
- TGI (CAKI-1 renal): 3.13 µM
- GI50 (SF-268 CNS): 0.88 µM
- TGI (SF-268 CNS): 2.51 µM
- GI50 (SNB-75 CNS): 1.95 µM
- TGI (SNB-75 CNS): 6.85 µM
- GI50 (HT29 colon): 0.3 µM
- TGI (HT29 colon): 0.942 µM
- GI50 (SF-295 CNS): 0.924 µM
- TGI (SF-295 CNS): 2.72 µM

— PubChem BioAssay (NCI)
